Assay results from ChEMBL document CHEMBL1201862, “PubChem BioAssay data set” (2004).
Active and inactive are the calls of the source.

What was measured:
Caspase-3 [1] = target: T1, Caspase-3 (Homo sapiens, UniProt P42574); type: functional
T1 sequence (P42574 whole entry): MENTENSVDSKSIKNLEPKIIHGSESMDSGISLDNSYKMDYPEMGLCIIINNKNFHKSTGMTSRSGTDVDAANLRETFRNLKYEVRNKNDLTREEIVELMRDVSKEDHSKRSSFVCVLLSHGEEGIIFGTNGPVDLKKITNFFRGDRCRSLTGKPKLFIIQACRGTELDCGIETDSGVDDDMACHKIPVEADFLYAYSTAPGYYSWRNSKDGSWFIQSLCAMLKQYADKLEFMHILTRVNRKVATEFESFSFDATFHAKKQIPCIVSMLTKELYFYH

[2] = target: T2, Sentrin-specific protease 7 (Homo sapiens, UniProt Q9BQF6); type: functional;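 note: Luminescence-based dose-response confirmation of ultra-high-throughput screening hits, measuring inhibition of SENP7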
T2 sequence (Q9BQF6 whole entry): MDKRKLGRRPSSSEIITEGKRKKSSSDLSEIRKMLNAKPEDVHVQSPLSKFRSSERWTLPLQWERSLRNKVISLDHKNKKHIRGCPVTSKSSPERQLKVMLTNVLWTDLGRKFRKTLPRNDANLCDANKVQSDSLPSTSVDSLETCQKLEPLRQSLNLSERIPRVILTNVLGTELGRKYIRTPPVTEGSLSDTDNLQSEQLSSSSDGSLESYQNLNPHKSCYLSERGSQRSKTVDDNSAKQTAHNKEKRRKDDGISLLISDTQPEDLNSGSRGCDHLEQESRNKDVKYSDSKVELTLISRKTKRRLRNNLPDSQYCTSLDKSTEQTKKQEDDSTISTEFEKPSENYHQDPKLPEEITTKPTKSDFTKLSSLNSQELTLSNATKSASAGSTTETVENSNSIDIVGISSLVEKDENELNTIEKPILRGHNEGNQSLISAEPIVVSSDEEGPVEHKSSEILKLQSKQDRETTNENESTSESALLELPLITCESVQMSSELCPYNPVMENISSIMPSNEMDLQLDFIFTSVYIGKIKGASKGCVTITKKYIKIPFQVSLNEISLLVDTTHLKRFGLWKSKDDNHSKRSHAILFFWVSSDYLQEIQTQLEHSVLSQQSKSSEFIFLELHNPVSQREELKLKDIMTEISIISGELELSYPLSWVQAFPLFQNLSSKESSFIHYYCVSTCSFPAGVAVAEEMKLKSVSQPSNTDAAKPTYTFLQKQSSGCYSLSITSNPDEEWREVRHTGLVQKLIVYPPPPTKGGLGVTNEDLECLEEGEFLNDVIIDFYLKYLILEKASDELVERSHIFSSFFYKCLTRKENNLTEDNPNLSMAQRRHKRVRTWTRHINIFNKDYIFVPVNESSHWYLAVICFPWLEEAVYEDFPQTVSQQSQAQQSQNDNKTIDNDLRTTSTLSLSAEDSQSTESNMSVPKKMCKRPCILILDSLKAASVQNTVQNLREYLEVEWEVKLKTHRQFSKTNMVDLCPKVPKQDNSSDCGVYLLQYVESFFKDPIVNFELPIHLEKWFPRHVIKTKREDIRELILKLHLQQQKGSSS

[3] = target: T3, Sentrin-specific protease 6 (Homo sapiens, UniProt Q9GZR1); type: functional
T3 sequence (Q9GZR1 whole entry): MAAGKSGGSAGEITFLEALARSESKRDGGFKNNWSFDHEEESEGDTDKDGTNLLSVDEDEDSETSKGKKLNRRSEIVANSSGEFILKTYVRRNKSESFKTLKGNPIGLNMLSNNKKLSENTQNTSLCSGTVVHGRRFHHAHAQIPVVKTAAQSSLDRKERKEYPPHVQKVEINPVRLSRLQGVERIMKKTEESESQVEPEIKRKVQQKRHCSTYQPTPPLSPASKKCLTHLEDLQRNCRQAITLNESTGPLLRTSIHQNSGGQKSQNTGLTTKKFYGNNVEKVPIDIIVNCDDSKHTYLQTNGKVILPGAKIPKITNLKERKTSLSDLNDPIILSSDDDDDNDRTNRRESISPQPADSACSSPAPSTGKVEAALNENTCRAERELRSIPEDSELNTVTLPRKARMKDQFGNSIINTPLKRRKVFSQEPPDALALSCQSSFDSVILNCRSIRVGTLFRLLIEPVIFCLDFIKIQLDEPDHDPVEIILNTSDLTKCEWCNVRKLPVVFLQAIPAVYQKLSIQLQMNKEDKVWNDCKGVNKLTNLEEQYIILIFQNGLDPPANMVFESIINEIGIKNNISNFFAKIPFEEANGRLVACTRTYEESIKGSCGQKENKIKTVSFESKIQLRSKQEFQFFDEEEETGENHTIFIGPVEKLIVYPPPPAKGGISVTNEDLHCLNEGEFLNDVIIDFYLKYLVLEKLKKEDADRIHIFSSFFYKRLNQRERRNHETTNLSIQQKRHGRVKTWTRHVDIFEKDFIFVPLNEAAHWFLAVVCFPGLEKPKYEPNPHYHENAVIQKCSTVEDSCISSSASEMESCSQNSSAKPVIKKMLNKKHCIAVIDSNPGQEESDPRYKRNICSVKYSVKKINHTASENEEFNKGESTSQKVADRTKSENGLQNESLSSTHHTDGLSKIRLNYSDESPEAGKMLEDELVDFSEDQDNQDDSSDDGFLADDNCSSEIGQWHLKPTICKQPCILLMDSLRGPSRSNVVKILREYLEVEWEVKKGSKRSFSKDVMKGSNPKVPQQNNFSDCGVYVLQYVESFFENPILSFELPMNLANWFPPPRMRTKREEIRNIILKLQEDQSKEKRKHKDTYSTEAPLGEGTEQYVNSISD

[4] = target: T4, Sentrin-specific protease 8 (Homo sapiens, UniProt Q96LD8); type: functional;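 note: luminescence read-out of SENP8 inhibition, dose-response confirmation following an ultra-high-throughput screen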
T4 sequence (Q96LD8 whole entry): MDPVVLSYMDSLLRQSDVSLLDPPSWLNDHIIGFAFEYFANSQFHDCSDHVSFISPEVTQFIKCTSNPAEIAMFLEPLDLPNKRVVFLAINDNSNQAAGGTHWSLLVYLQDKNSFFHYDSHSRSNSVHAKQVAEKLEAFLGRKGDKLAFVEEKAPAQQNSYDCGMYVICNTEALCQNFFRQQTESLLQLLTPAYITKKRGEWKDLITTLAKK

[5] = target: T4, Sentrin-specific protease 8; test: SENP8 protease inhibitors, SAR follow-up, biochemical, luminescence (AID 504501); type: functional
Caspase-3 [6] = target: T1, Caspase-3; test: SAR Analysis of small molecule inhibitors of Sentrin-specific proteases (SENPs) using a Caspase-3 Selectivity assay. [Related pubchem assays (depositor defined):AID2540, AID2599, AID434973, AID489001]; type: functional
[7] = target: T3, Sentrin-specific protease 6; test: SAR Analysis of small molecule inhibitors of Sentrin-specific protease 6 (SENP6) using a Luminescent assay. [Related pubchem assays (depositor defined):AID2582, AID2599]; type: functional
[8] = target: T2, Sentrin-specific protease 7; test: SENP7 protease inhibitors, SAR follow-up, biochemical, luminescence (AID 504497); type: functional
[9] = target: T5, Delta-type opioid receptor (Homo sapiens, UniProt P41143); test: HTS Image-Based Screen for Antagonists of the DOR Receptor. [Related pubchem assays (depositor defined):AID1777, AID1785, AID1786, AID2133]; type: functional
Mu-type opioid receptor = Mu-type opioid receptor (Homo sapiens, UniProt P35372); test: HTS Image-Based Screen for Agonists of the MOR Receptor. [Related pubchem assays (depositor defined):AID1777, AID1785, AID1786, AID2133]; type: functional;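 note: imaging of beta-arrestin GFP recruitment into spots after receptor activation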
[10] = target: T5, Delta-type opioid receptor; test: HTS Image-Based Screen for Agonists of the DOR Receptor. [Related pubchem assays (depositor defined):AID1777, AID1786, AID2133]; type: functional
[11] = inhibitors of intracellular T. cruzi replication, confirmation, NIH3T3 host cells, beta-gal luminescence (AID 2044); type: functional, cell-based;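 note: intracellular parasites grown in NIH/3T3 mouse fibroblasts as host cells; luminescent beta-galactosidase reporter signal from transgenic T. cruzi replicating inside host cells; inhibitors lower the luminescence signal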
[12] = growth suppression of PTEN-null colon cells, dose response, cell-based, HCT116 PTEN knockout (AID 1047); type: functional;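 note: HCT116 colon tumor cells with PTEN knocked out; cells exposed to compound for 60 hours before readout; potency for loss of cell viability measured by luminescence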
[13] = target: T6, Kappa-type opioid receptor (Homo sapiens, UniProt P41145); type: functional
[14] = cytotoxicity toward NIH3T3 fibroblasts, dose response, counter-screen, cell-based, ATP luminescence, mouse fibroblasts (AID 2010); type: functional;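 note: cells exposed to compound for about 90 hours before reading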
[15] = target: T7, Bifunctional protein GlmU (Mycobacterium tuberculosis, UniProt P9WMN3); test: Inhibitors of Mycobacterial Glucosamine-1-phosphate acetyl transferase (GlmU). Secondary screen.; set-up: species or system Mycobacterium tuberculosis H37Rv
T7 sequence (P9WMN3 whole entry): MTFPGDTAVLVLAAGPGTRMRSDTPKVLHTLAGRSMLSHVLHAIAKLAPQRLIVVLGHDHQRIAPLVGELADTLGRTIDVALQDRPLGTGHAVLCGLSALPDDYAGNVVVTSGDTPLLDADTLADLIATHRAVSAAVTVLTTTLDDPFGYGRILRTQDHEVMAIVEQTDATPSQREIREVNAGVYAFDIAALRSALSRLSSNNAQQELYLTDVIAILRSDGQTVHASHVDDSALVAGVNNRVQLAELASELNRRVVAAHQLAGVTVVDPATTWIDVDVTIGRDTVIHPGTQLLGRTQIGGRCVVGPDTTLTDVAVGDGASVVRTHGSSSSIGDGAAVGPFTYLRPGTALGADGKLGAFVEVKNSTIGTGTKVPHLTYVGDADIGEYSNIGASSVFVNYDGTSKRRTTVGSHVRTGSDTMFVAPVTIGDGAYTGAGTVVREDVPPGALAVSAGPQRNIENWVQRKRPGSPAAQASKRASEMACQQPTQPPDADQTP

Beta-galactosidase = Beta-galactosidase (Escherichia coli, UniProt Q8VNN2); type: functional
[16] = growth suppression of beta-catenin-knockout colon cells, dose response, cell-based, HCT116, human colon tumor (AID 1045); type: functional;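 note: HCT116 colon tumor cells with beta catenin knocked out; cells exposed to compound for 60 hours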
[17] = target: T6, Kappa-type opioid receptor; type: functional; remark: listed apart in the source
[18] = THP-1 cell cytotoxicity, dose response, cytotoxicity control for non-replicating M. tuberculosis project (AID 489025); type: functional
[19] = HepG2 cell cytotoxicity, dose response, cytotoxicity control for non-replicating M. tuberculosis project (AID 489018); type: functional; conditions: Mycobacterium tuberculosis
[20] = Vero E6 cell cytotoxicity, dose response, cytotoxicity control for non-replicating M. tuberculosis project, secondary assay (AID 492998); type: functional, VeroE6; conditions: Vero C1008
[21] = target: T8, Microphthalmia-associated transcription factor (Homo sapiens, UniProt O75030); test: TRPM1 promoter luciferase signal decrease, dose response, MITF inhibitor project, cell-based, SK-MEL-5, cherry-picked, set 3 (AID 493073); type: functional
T8 sequence (O75030 whole entry): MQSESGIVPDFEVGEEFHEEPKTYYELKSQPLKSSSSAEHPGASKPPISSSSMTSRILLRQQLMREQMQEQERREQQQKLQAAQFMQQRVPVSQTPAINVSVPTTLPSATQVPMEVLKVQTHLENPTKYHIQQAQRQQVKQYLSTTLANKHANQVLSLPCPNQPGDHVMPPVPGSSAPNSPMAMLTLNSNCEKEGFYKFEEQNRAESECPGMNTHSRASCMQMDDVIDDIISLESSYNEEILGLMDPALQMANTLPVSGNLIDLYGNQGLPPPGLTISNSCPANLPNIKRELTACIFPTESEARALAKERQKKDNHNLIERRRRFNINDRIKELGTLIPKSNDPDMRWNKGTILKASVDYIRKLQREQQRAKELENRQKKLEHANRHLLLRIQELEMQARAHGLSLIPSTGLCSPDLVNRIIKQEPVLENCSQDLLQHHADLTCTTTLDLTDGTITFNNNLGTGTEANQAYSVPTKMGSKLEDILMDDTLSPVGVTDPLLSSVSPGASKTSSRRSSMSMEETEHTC

cells = type: functional
CHO = test: cytotoxicity in TLR9-MyD88 CHO cells, dose response, cytotoxicity control for TLR9-MyD88 binding inhibitor project, cell-based, luminescence (AID 588339); type: functional, hamster; conditions: Cricetulus griseus;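 note: CHO cells stably coexpressing TLR9 and MyD88 fusions from primary screen; compound exposure lasted 48 hours before viability readout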
Beta Lactamase = Beta Lactamase (Pseudomonas aeruginosa, UniProt Q932Y6); test: beta-lactamase reporter inhibitor potency, dose response, artefact control for TLR9-MyD88 binding inhibitor project, BLA reporter cells, FRET fluorescence (AID 588341); type: cell-based;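 note: cell based assay in CHO-K1 cells stably expressing beta-lactamase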
[22] = Shn3 3'UTR reporter inhibitors, dose response, cell-based, Clone20 osteoblasts, firefly luciferase, cherry-picked (AID 624132); type: functional;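 note: firefly luciferase luminescence from reporter carrying the Shn3 3'UTR in osteoblasts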
[23] = HepG2 cell cytotoxicity, dose response, cytotoxicity control for Shn3 inhibitor project, CellTiter-Glo, cherry-picked (AID 624134); type: functional, cell-based
[24] = control 3'UTR Renilla luciferase suppression, dose response, counter-screen for Shn3 inhibitor project, cell-based, Clone20-Shn3RL, cherry-picked (AID 624133); type: functional
Fatty acid synthase [25] = target: T9, Fatty acid synthase (Homo sapiens, UniProt P49327); test: FAS thioesterase domain inhibitors, dose response, biochemical, endpoint fluorescence intensity, uHTS hits (AID 624327); type: functional;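 note: fluorescence from hydrolysis of an O-methyl fluorescein acyl ester substrate by the enzyme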
Fatty acid synthase [26] = target: T9, Fatty acid synthase; test: FAS thioesterase domain inhibitors, dose response, biochemical, kinetic fluorescence intensity (AID 624326); type: functional;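 note: rate of fluorescence rise from hydrolysis of a fluorogenic O-methyl fluorescein ester substrate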

T5 sequence (P41143 whole entry): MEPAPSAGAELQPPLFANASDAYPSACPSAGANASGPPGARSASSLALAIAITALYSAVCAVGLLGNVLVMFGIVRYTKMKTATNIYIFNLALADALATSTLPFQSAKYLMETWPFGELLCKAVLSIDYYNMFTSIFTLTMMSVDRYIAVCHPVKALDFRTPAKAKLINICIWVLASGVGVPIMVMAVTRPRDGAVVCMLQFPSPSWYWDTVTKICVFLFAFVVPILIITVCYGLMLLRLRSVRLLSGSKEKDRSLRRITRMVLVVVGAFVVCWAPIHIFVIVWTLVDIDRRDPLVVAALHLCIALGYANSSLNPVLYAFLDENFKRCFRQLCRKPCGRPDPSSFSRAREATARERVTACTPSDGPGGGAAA
T9 sequence (P49327 whole entry, the tested form may be a part): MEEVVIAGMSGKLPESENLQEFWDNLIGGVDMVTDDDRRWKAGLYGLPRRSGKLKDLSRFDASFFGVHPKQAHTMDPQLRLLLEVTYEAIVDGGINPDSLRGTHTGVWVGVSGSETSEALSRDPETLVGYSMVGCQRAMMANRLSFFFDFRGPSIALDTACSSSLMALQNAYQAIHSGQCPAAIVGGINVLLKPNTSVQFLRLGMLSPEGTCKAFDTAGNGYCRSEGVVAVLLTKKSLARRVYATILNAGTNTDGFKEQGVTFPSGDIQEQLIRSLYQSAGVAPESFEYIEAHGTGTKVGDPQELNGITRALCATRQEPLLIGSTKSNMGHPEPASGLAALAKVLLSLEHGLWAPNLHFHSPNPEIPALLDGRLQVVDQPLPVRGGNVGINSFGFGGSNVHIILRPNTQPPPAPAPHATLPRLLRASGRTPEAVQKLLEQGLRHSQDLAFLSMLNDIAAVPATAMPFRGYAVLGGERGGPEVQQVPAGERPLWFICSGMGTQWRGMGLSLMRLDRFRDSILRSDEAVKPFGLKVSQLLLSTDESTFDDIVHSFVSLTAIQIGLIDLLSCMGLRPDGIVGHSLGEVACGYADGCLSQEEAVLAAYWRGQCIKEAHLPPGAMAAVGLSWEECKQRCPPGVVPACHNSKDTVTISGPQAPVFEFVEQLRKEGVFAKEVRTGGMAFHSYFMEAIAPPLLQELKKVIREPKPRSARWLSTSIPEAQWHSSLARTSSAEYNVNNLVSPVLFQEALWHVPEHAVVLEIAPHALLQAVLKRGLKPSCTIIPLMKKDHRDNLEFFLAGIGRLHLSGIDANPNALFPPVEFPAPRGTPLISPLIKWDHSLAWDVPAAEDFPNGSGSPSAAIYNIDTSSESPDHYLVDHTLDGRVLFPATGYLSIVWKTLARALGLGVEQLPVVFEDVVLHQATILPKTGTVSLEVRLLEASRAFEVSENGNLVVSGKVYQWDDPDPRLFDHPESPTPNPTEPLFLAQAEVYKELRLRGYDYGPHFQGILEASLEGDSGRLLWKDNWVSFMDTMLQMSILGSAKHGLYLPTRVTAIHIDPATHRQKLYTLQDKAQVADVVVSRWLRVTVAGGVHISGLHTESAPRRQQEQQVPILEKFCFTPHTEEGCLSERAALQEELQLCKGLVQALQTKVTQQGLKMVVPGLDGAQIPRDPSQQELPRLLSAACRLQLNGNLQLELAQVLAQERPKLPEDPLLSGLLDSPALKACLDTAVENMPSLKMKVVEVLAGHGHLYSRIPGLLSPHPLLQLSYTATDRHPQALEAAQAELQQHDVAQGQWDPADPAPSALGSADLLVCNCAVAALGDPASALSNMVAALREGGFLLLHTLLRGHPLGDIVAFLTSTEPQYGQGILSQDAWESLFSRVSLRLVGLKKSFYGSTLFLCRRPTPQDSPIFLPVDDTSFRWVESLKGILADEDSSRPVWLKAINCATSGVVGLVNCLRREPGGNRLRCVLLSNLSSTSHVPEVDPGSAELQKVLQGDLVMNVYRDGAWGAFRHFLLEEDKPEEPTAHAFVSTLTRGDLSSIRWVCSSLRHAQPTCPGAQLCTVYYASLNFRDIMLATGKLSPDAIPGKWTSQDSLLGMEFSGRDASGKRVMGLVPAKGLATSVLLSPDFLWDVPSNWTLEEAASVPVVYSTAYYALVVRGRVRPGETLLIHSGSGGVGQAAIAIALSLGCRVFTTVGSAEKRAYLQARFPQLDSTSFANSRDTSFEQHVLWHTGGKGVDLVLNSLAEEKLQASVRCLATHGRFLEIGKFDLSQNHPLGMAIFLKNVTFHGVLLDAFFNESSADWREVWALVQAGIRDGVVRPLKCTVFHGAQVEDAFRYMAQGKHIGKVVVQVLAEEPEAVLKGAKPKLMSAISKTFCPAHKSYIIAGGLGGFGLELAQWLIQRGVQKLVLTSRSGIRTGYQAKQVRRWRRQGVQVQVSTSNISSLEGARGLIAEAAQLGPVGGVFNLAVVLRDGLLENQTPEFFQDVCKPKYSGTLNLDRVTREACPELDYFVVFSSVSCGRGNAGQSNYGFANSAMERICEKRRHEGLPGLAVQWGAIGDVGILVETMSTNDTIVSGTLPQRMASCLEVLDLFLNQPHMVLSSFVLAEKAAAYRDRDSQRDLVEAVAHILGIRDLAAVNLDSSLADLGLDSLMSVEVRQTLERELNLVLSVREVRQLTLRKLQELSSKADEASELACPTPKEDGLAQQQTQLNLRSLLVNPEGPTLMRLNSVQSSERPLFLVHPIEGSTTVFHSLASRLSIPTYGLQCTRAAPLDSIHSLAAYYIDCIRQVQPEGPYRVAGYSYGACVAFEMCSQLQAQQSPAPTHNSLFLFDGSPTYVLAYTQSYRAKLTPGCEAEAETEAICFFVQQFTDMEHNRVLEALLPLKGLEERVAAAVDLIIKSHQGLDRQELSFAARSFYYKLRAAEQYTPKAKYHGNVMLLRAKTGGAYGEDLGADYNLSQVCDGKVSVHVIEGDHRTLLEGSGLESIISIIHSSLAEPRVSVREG
T6 sequence (P41145 whole entry): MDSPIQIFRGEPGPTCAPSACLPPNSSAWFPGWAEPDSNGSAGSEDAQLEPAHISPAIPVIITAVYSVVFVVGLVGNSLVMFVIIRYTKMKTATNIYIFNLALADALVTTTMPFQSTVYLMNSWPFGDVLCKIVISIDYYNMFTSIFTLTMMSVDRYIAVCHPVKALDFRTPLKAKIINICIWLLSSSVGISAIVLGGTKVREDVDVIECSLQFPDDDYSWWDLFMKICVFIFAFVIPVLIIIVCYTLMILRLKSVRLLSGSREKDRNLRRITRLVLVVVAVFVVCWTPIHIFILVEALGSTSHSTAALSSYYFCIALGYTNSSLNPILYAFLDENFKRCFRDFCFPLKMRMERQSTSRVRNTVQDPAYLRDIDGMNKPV
Sequence of Beta Lactamase (Q932Y6 whole entry): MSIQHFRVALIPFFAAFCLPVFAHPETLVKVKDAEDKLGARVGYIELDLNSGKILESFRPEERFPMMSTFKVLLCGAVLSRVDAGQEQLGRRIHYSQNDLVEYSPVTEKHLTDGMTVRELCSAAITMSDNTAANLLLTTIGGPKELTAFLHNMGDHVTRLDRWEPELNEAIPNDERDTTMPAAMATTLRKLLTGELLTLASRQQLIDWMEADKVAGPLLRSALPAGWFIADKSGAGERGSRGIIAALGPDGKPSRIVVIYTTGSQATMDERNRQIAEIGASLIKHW
Sequence of Beta-galactosidase (Q8VNN2 whole entry): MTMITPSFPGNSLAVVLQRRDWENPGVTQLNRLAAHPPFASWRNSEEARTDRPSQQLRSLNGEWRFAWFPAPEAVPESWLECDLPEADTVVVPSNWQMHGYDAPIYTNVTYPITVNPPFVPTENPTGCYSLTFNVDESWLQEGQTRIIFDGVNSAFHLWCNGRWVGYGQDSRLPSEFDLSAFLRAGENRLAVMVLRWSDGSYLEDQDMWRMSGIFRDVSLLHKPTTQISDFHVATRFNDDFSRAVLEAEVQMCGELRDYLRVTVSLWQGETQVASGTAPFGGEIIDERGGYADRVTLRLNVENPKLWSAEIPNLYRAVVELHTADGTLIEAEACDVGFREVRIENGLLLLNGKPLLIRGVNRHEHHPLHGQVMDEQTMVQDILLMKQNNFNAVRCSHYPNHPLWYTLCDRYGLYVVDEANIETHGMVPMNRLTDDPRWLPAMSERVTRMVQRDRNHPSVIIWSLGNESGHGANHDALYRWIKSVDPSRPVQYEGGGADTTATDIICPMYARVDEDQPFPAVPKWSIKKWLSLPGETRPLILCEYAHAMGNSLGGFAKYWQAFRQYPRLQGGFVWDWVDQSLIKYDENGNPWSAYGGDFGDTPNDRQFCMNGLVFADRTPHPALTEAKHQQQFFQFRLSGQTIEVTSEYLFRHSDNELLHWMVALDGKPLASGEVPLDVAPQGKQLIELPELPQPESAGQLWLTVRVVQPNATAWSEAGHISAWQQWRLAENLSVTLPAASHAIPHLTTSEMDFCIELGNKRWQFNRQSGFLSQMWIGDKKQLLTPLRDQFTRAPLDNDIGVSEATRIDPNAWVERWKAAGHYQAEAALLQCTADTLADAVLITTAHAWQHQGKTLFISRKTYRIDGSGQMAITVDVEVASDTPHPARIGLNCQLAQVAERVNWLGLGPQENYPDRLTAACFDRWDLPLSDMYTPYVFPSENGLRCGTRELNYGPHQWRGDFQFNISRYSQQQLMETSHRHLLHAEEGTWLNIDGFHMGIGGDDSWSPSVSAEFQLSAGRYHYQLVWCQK
Sequence of Mu-type opioid receptor (P35372 whole entry): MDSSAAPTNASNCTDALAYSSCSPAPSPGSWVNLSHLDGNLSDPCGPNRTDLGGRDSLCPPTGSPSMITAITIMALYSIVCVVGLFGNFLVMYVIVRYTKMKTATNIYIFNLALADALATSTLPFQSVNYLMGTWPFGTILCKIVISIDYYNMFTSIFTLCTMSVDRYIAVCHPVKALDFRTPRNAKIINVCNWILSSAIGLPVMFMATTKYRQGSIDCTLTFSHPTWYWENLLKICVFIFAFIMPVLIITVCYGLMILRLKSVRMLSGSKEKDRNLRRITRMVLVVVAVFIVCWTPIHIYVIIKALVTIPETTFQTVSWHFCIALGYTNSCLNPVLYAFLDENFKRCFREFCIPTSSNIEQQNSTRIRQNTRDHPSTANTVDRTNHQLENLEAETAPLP

O=C(CCc1ccccc1)c1ccc2c(c1)OCCCO2
IC50 (Caspase-3 [1]): 28.9 µM (active)
IC50 [2]: 9.59 µM (active)
IC50 [3]: 32.8 µM (active)
IC50 [4]: 27.3 µM (active)

C(=N\Nc1cc(N2CCCC2)nc(N2CCCC2)n1)/c1ccccc1
IC50 [5]: > 99 µM (inactive)
IC50 (Caspase-3 [6]): > 99 µM (inactive)
IC50 [7]: 15.1 µM (active)
IC50 [8]: 89.9 µM (active)

Cc1cc(N/N=C/c2ccc3c(c2)OCO3)nc2ccccc12
IC50 (Caspase-3 [1]): 27.6 µM (active)
IC50 [2]: 4.64 µM (active)
IC50 [3]: 17.6 µM (active)
IC50 [4]: 21.9 µM (active)

CC(=O)OCCNc1cc(Sc2nc3ccccc3[nH]2)c2nonc2c1[N+](=O)[O-]
IC50 [9]: > 32 µM (inactive)
EC50 (Mu-type opioid receptor): > 32 µM (inactive)
EC50 [10]: > 32 µM (inactive)
EC50 [11]: 2.47 µM (active)
EC50 [12]: 4.91 µM (active)
IC50 [13]: 5.01 µM (active)
EC50 [14]: 3.66 µM (active)
IC50 [15]: 116 µM (active)
EC50 (Beta-galactosidase): > 31.5 µM (inactive)
EC50 [16]: 4.64 µM (active)
IC50 [17]: 17.1 µM
CC50 [18]: 19.9 µM (active)
CC50 [19]: 12.4 µM (active)
CC50 [20]: 13.5 µM (active)
AC50 [21]: 11.5 µM (active)
IC50 (cells): 5.83 µM (active)
IC50 (CHO): 3.06 µM (active)
IC50 (Beta Lactamase): 10 µM (inactive)
AC50 [22]: 1.86 µM (active)
AC50 [23]: 17.5 µM (active)
AC50 [24]: 6.26 µM (active)
IC50 (Fatty acid synthase [25]): 1.75 µM (active)
IC50 (Fatty acid synthase [26]): 2.59 µM (active)

N#Cc1ccc(-c2nc(/C=C/c3ccccc3)no2)cc1
IC50 [5]: > 99 µM (inactive)
IC50 (Caspase-3 [6]): > 99 µM (inactive)
IC50 [7]: > 99 µM (inactive)
IC50 [8]: > 99 µM (inactive)
